# According to patent US7101915B1, “P-terphenyl compounds” (Shionogi & Co., Ltd., priority 1996, dated 2006):
# Columns and labels:
# Format in all cases: cell-based
# Settings in all cases: EL-4, TPA 10 ng/ml, 24 hours, ELISA; for IC50: Mus musculus, T-cell
# [1] = system: IL-2 production of mouse T cell strain EL-4 (TPA); test: Suppressive effect on the cytokine production of mouse T cell strain EL-4: IL-2
# Description: (§1) Experiment 8 Suppressive Effect on the Cytokine Production of a Mouse T Cell Strain EL-4 In 48-well plate were added 2×10^5 mouse T cell strain EL-4 which were suspended in 0.2 ml of 1% fetal bovine serum-added RPMI 1640 medium (2 mM of sodium bicarbonate, 50 units/ml of penicillin, 50 μg/ml of streptomycin and 5×10^−5 M of 2-mercaptoethanol were added) and the compound of the present invention of a predetermined concentration. TPA was added as a cell stimulater at a final concentration of 10 ng/ml to adjust a final volume of each well to 0.4 ml. Each compound of the present invention was dissolved in DMSO and diluted with the above RPMI 1640 medium, and then for added at a final concentration of 100 ng/ml or less. The cells in the 48-well plate were cultivated in an incubator keeping the humidity 100%, carbon dioxide 5% and air 95% at 37° C. for 24 hours to collect a supernatant of each well. The amount of IL-2, IL-4 and IL-5 released in the medium of each well were measured with the ELISA kit (Amersham K. K.) to be taken as an index of the cytokine production of the cells. TPA free group (-TPA) was used as a control.
# [2] = system: IL-4 production of mouse T cell strain EL-4 (TPA); test: Suppressive effect on the cytokine production of mouse T cell strain EL-4: IL-4
# Description: as §1
# [3] = system: IL-5 production of mouse T cell strain EL-4 (TPA); test: Suppressive effect on the cytokine production of mouse T cell strain EL-4: IL-5
# Description: as §1
Structure (SMILES),IC50 IL-2 [1] [ng/mL],IC50 IL-4 [2] [ng/mL],IC50 IL-5 [3] [ng/mL],IC50 [1] [µg/mL],IC50 [2] [µg/mL],IC50 [3] [µg/mL]
COc1cc(-c2ccc(F)cc2)c(OC)c(O)c1-c1ccc(OCc2ccccc2)c(O)c1 [Compound I-4],>500,14,120,,,
COc1cc(-c2ccc(O)cc2)c(OC)c(O)c1-c1ccc(OCC(C)=C(C)C)c(O)c1 [Compound I-213],>1000,25,23,,,
COc1cc(-c2ccc(OCC=C(C)C)c(OS(C)(=O)=O)c2)c(OC)cc1-c1ccc(OS(C)(=O)=O)cc1 [Compound I-70],>2000,0.2,1000,,,
COc1cc(-c2ccc(OS(C)(=O)=O)cc2)c(OC)c(OS(C)(=O)=O)c1-c1ccc(OCc2ccc3ccccc3n2)c(OS(C)(=O)=O)c1 [Compound I-307],>1000,52,23,,,
COc1cc(-c2ccc(O)cc2)c(OC)c(O)c1-c1ccc(S(=O)(=O)CC=C(C)C)c(O)c1 [Compound I-226],880,17,300,,,
COC(=O)c1ccc(-c2cc(OC)c(-c3ccc(OCc4ccccc4)c(O)c3)c(O)c2OC)cc1 [Compound I-237],>100,17,100,,,
COc1cc(-c2ccc(OS(C)(=O)=O)cc2)c(OC)c(OS(C)(=O)=O)c1-c1ccc(OCc2ccccc2)c(C=O)c1 [Compound I-83],>10000,140,1000,,,
COc1cc(-c2ccc(O)cc2)c(OC)c(O)c1-c1ccc(OC/C=C/CO)c(O)c1 [Compound I-296],>1000,70,47,,,
COc1cc(-c2ccc(O)cc2)c(OC)c(O)c1-c1ccc(OCc2cc(C)cc(C)c2)c(O)c1 [Compound I-209],>200,14,12,,,
COc1cc(-c2ccc(SC)cc2)c(OC)c(O)c1-c1ccc(OCc2ccccc2)c(O)c1 [Compound I-233],>1000,12,3.8,,,
COC(=O)c1ccc(-c2cc(OC)c(-c3ccc(OCc4ccccc4)c(OS(C)(=O)=O)c3)c(OS(C)(=O)=O)c2OC)cc1 [Compound I-238],>1000,35,>1000,,,
COc1cc(-c2ccc(O)cc2)c(OC)c(O)c1-c1ccc(SCc2ccccn2)c(O)c1 [Compound I-223],1000,16,45,,,
COc1cc(-c2ccc(O)cc2)c(OC)c(O)c1-c1ccc(OC/C=C(\C)CCC=C(C)C)c(O)c1 [Compound I-37],>500,7,110,,,
COc1cc(-c2ccc(OS(C)(=O)=O)cc2)c(OC)c(C)c1-c1ccc(OCCC=C(C)C)c(OS(C)(=O)=O)c1 [Compound I-228],>1000,21,30,,,
COc1cc(-c2ccc(C(F)(F)F)cc2)c(OC)c(OS(C)(=O)=O)c1-c1ccc(OCC=C(C)C)c(OS(C)(=O)=O)c1 [Compound I-189],>10000,100,10000,,,
COc1cc(-c2ccc(OS(C)(=O)=O)cc2)c(OC)c(CO)c1-c1ccc(OCc2ccccc2)c(CO)c1 [Compound I-243],,,,> 0.5,0.063,> 0.55
COc1cc(-c2ccc(O)cc2)c(OC)c(C)c1-c1ccc(OCCC=C(C)C)c(O)c1 [Compound I-229],>1000,42,80,,,

Structure (SMILES),IC50 IL-2 [1] [ng/mL],IC50 IL-4 [2] [ng/mL],IC50 IL-5 [3] [ng/mL],IC50 [1] [µg/mL],IC50 [2] [µg/mL],IC50 [3] [µg/mL]
COc1cc(-c2ccc(O)cc2)c(OC)c(O)c1-c1ccc(OCC=NNC(N)=O)c(O)c1 [Compound I-302],>1000,25,280,,,
COc1cc(-c2ccc(OS(C)(=O)=O)cc2)c(OC)c(OS(C)(=O)=O)c1-c1ccc(OCc2ccc(-c3ccccc3)cc2)c(OS(C)(=O)=O)c1 [Compound I-403],>1000,13,>1000,,,
COc1cc(-c2ccc(OS(C)(=O)=O)cc2)c(OC)c(OS(C)(=O)=O)c1-c1ccc(OCc2ccccc2)c(C(N)=O)c1 [Compound I-148],>10000,100,11000,,,
COc1cc(-c2ccc(OS(C)(=O)=O)cc2)c(OC)c(OS(C)(=O)=O)c1-c1cc(C=O)c(OCC=C(C)C)c(OS(C)(=O)=O)c1 [Compound I-128],>10000,140,450,,,
COc1cc(-c2ccc(C)cc2)c(OC)c(O)c1-c1ccc(OCCC=C(C)C)c(O)c1 [Compound I-279],>1000,38,90,,,
COc1cc(-c2ccc(OS(C)(=O)=O)cc2)c(OC)c(C)c1-c1ccc(OCc2ccc(C)cc2)c(OS(C)(=O)=O)c1 [Compound I-230],>1000,13,20,,,
COc1cc(-c2ccc(C(F)(F)F)cc2)c(OC)c(O)c1-c1ccc(OCC=C(C)C)c(O)c1 [Compound I-190],>100,7,10,,,
COc1cc(-c2ccc(O)cc2)c(OC)c(O)c1-c1ccc(OCc2ccc(C)cc2C)c(O)c1 [Compound I-309],>500,29,10,,,
COc1cc(-c2ccc(OS(C)(=O)=O)cc2)c(OC)c(OS(C)(=O)=O)c1-c1ccc(OCc2ccc(C(C)C)cc2)c(OS(C)(=O)=O)c1 [Compound I-305],>1000,10,340,,,
COc1cc(-c2ccc(OS(C)(=O)=O)cc2)c(OC)c(OS(C)(=O)=O)c1-c1ccc(OS(=O)(=O)c2ccc(C)cc2)c(OS(C)(=O)=O)c1 [Compound I-395],>1000,1 to 10,>1000,,,
COc1cc(-c2cccc(C(F)(F)F)c2)c(OC)c(O)c1-c1ccc(OCCC=C(C)C)c(O)c1 [Compound I-220],>1000,150,720,,,
COc1cc(-c2ccc(N(C)C)cc2)c(OC)c(OS(C)(=O)=O)c1-c1ccc(OCC=C(C)C)c(OS(C)(=O)=O)c1 [Compound I-242],>1000,100,880,,,
COC(=O)c1ccc(-c2cc(OC)c(-c3ccc(OCc4ccc(C)cc4)c(OS(C)(=O)=O)c3)c(OS(C)(=O)=O)c2OC)cc1 [Compound I-239],,,,> 1,0.054,0.9
COc1cc(-c2c(OC)cc(-c3ccc(OS(C)(=O)=O)cc3)c(OC)c2CO)c(OC)cc1OCc1ccc(C)cc1 [Compound I-368],>1000,72,380,,,
COc1cc(-c2ccc(OS(C)(=O)=O)cc2)c(OC)c(OS(C)(=O)=O)c1-c1ccc(OCCC=C(C)C)cc1 [Compound I-387],>1000,75,40,,,
COc1ccccc1-c1cc(OC)c(-c2ccc(OCc3ccc(C)cc3)c(O)c2)c(O)c1OC [Compound I-282],>500,<5,130,,,
